Patent US12227500B2, “Substituted pyrrolo[2,3-b]pyridines for suppressing toxic endoplasmic reticulum stress” (THE TRUSTEES OF COLUMBIA UNIVERSITY IN THE CITY OF NEW YORK, priority 2018, dated 2025)
Like-named read-outs stand apart in the source and are kept apart here.

Tests used:
Assay in all cases: Radiolabeled ATP kinase assay, panel of 60 kinases (Table S5)
Assay type in all cases: biochemical
[1] = target: T1, panel of 60 human kinases (Homo sapiens, UniProt O14965); conditions: Aurora A; 0.1 μM; 10 μM ATP; read-out: % Enzyme Activity (relative to DSMO controls)
T1 construct: purchased Reaction Biology Corp
T1 sequence (O14965 1-403): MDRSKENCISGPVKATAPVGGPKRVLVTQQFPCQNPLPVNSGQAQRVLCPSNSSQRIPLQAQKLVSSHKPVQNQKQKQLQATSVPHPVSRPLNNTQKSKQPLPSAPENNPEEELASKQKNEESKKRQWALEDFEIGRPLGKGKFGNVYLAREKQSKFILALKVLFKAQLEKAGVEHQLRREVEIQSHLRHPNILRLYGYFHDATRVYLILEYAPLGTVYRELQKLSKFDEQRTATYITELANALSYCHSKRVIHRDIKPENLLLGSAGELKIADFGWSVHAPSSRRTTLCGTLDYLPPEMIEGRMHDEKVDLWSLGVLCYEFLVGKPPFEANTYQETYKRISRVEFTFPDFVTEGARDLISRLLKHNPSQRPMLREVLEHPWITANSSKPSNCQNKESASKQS
Method in brief: (§1)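 Compounds at two concentrations, 0.1 μM and 0.5 μM, were screened for inhibition of 60 kinases in cell-free assays read out by radiolabeled ATP.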

[2] = target: T2, panel of 60 human kinases (Homo sapiens, UniProt P00519); conditions: ABL1; 0.1 μM; 10 μM ATP; read-out: % Enzyme Activity (relative to DSMO controls)
T2 construct: purchased Reaction Biology Corp
Method in brief: as §1

[3] = target: T3, panel of 60 human kinases (Homo sapiens, UniProt P45983); conditions: JNK1; 0.1 μM; 10 μM ATP; read-out: % Enzyme Activity (relative to DSMO controls)
T3 construct: purchased Reaction Biology Corp
Method in brief: as §1

[4] = target: T4, panel of 60 human kinases (Homo sapiens, UniProt P50750); conditions: 0.1 μM, 10 μM ATP, read-out: % Enzyme Activity (relative to DSMO controls)
T4 construct: purchased Reaction Biology Corp
Method in brief: as §1

[5] = target: T5, panel of 60 human kinases (Homo sapiens, UniProt Q00535); conditions: 0.1 μM, 10 μM ATP, read-out: % Enzyme Activity (relative to DSMO controls)
T5 construct: purchased Reaction Biology Corp
Method in brief: as §1

[6] = target: T6, panel of 60 human kinases (Homo sapiens, UniProt Q00536); conditions: CDK16/cyclin Y (PCTAIRE); 0.1 μM; 10 μM ATP; read-out: % Enzyme Activity (relative to DSMO controls)
T6 construct: purchased Reaction Biology Corp
Method in brief: as §1

[7] = target: T7, panel of 60 human kinases (Homo sapiens, UniProt Q12851); conditions: GCK/MAP4K1; 0.1 μM; 10 μM ATP; read-out: % Enzyme Activity (relative to DSMO controls)
T7 construct: purchased Reaction Biology Corp
T7 sequence (Q12851 1-820): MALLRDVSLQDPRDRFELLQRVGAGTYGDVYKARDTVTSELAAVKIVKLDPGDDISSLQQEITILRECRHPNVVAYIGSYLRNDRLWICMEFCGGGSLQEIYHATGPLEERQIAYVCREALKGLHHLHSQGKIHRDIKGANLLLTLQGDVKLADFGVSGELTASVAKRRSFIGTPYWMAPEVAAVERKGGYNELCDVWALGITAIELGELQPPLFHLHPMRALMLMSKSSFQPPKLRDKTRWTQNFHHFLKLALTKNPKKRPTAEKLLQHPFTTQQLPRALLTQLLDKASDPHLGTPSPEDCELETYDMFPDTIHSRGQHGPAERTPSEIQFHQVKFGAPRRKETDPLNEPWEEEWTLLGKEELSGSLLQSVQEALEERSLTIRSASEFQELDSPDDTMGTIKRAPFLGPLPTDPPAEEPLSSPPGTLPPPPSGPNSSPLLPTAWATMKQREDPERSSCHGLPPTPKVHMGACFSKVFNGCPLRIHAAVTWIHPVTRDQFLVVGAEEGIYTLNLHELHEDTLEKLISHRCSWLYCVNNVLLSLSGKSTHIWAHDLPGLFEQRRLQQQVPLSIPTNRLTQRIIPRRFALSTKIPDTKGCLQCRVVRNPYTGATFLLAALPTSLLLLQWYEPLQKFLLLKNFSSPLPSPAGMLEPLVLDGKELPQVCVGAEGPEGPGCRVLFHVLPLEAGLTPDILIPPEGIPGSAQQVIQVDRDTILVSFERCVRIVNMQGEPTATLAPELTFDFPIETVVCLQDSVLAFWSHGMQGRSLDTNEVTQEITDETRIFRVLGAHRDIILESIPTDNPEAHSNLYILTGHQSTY
Method in brief: as §1

[8] = target: T8, panel of 60 human kinases (Homo sapiens, UniProt Q96GD4); conditions: Aurora B; 0.1 μM; 10 μM ATP; read-out: % Enzyme Activity (relative to DSMO controls)
T8 construct: purchased Reaction Biology Corp
Method in brief: as §1

[9] = target: T9, panel of 60 human kinases (Homo sapiens, UniProt Q9HAZ1); conditions: CLK4; 0.1 μM; 10 μM ATP; read-out: % Enzyme Activity (relative to DSMO controls)
T9 construct: purchased Reaction Biology Corp
Method in brief: as §1

[10] = target: T10, panel of 60 human kinases (Homo sapiens, UniProt Q9UKE5); conditions: TNIK; 0.1 μM; 10 μM ATP; read-out: % Enzyme Activity (relative to DSMO controls)
T10 construct: purchased Reaction Biology Corp
Method in brief: as §1

[11] = target: T11, panel of 60 human kinases (Homo sapiens, UniProt Q9Y4K4); conditions: KHS/MAPK4K5; 0.1 μM; 10 μM ATP; read-out: % Enzyme Activity (relative to DSMO controls)
T11 construct: purchased Reaction Biology Corp
Method in brief: as §1

T4 sequence (P50750 whole entry): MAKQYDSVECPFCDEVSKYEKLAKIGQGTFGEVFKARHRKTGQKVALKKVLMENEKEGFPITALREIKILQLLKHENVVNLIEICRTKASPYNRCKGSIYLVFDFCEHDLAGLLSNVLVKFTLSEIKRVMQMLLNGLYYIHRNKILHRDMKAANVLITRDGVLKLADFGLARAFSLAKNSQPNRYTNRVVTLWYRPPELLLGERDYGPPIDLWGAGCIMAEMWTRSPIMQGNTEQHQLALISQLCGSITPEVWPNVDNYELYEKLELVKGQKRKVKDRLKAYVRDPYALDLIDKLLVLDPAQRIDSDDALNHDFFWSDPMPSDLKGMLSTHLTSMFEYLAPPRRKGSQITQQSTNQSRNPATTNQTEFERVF
T9 sequence (Q9HAZ1 whole entry): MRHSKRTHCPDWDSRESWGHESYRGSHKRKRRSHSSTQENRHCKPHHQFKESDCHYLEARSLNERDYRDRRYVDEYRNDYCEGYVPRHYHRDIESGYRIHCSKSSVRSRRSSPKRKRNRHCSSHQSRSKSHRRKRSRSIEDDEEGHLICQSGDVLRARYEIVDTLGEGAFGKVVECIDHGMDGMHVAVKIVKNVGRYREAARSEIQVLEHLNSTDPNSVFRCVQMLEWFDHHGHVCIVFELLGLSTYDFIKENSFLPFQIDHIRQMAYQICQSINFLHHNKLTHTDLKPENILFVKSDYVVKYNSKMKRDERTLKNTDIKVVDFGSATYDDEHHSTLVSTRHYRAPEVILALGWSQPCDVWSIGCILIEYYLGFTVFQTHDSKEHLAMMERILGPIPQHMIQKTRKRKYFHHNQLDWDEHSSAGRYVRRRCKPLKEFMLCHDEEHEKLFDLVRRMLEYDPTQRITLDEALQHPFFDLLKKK
T6 sequence (Q00536 whole entry): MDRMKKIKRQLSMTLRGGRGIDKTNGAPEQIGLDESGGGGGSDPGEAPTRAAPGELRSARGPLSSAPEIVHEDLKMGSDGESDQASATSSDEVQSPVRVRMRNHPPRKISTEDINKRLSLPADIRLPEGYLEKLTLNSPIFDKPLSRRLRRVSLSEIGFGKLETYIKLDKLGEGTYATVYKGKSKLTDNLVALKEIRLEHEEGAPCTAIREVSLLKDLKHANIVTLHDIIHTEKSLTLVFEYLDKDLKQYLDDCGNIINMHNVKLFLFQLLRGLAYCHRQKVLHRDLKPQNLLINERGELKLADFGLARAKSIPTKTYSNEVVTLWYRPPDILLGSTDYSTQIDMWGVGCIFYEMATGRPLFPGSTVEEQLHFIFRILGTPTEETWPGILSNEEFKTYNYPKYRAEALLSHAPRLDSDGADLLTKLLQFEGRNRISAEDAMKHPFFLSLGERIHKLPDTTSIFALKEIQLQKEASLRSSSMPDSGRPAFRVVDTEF
T11 sequence (Q9Y4K4 whole entry): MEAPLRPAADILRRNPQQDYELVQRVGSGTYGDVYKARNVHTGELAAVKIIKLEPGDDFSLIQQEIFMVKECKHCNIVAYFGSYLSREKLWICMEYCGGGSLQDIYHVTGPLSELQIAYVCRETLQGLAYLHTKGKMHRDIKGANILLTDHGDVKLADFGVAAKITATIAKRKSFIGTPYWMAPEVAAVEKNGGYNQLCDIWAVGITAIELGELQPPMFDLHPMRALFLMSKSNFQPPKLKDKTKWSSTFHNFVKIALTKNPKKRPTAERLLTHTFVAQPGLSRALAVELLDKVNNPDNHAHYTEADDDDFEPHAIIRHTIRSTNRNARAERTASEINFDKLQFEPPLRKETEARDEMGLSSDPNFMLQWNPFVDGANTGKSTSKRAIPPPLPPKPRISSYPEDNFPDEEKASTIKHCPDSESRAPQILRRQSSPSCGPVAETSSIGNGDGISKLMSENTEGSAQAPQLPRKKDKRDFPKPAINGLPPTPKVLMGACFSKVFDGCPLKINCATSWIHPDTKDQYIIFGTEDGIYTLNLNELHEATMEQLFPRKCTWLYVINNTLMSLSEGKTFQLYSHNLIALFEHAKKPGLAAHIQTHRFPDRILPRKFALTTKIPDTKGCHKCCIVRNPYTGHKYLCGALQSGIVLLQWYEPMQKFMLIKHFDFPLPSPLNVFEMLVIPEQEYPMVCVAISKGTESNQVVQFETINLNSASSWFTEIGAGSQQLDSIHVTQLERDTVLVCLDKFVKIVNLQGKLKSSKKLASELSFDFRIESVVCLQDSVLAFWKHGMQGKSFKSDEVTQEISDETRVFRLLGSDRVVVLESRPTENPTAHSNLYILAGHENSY
T5 sequence (Q00535 whole entry): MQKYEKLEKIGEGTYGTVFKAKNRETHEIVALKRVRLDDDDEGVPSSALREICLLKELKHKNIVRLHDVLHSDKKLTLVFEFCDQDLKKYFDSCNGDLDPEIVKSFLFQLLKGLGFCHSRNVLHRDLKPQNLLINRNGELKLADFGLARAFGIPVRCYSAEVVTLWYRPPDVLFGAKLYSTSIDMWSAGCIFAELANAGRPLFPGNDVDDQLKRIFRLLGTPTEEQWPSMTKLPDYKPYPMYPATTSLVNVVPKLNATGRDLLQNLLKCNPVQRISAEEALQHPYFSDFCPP
T2 sequence (P00519 whole entry): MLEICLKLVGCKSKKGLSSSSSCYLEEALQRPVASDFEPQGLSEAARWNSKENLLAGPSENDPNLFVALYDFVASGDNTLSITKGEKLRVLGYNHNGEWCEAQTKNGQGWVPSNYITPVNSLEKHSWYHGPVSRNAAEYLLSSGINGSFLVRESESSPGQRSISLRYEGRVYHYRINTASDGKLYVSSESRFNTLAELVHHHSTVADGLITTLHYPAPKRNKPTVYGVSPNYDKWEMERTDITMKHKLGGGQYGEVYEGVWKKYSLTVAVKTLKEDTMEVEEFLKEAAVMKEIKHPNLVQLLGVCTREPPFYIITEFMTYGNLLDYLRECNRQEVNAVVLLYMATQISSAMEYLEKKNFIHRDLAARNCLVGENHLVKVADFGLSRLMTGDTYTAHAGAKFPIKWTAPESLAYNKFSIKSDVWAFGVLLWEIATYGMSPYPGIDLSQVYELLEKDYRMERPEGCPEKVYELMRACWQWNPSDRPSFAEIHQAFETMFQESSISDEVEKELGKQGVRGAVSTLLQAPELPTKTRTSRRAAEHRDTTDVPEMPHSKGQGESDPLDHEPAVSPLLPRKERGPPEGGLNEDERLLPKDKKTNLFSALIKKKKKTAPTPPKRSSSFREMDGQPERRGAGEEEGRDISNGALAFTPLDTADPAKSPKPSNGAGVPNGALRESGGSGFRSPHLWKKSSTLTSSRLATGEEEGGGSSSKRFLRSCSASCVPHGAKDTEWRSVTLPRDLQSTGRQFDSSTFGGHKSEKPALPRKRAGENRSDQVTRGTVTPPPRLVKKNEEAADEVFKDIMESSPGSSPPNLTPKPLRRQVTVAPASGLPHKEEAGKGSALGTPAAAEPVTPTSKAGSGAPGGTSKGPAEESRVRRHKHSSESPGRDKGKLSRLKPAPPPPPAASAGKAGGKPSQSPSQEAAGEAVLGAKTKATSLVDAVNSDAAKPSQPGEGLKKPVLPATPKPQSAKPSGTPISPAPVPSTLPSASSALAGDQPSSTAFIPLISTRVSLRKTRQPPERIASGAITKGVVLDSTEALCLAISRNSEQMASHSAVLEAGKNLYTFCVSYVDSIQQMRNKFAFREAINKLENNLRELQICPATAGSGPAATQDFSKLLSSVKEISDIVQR
T8 sequence (Q96GD4 whole entry): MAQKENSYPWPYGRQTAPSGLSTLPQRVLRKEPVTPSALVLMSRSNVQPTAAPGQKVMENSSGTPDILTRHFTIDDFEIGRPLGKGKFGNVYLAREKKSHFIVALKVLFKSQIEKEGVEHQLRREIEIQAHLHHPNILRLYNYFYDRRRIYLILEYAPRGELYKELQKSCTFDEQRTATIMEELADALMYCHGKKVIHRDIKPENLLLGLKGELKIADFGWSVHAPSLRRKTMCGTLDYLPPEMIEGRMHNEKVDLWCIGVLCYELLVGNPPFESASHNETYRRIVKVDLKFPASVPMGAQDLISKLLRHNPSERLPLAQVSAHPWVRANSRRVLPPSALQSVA
T3 sequence (P45983 whole entry): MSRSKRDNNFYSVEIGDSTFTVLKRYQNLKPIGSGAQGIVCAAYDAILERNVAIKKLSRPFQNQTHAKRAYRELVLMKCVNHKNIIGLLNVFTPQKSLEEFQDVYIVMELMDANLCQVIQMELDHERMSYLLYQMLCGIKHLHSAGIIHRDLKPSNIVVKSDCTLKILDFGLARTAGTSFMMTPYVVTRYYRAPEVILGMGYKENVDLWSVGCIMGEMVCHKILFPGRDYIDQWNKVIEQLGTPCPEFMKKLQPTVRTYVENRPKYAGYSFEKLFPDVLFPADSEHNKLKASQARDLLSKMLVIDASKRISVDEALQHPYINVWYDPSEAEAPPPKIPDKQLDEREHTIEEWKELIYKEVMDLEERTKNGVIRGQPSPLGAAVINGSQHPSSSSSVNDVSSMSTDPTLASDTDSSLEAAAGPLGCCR

SMILES	remaining activity at 0.1 µM [1] [%]	remaining activity at 0.1 µM [2] [%]	remaining activity at 0.1 µM [3] [%]	remaining activity at 0.1 µM ([4]; CDK9/cyclin K) [%]	remaining activity at 0.1 µM ([4]; CDK9/cyclin T1) [%]	remaining activity at 0.1 µM ([4]; CDK9/cyclin T2) [%]	remaining activity at 0.1 µM ([5]; CDK5/p25) [%]	remaining activity at 0.1 µM ([5]; CDK5/p35) [%]	remaining activity at 0.1 µM [6] [%]	remaining activity at 0.1 µM [7] [%]	remaining activity at 0.1 µM [8] [%]	remaining activity at 0.1 µM [9] [%]	remaining activity at 0.1 µM [10] [%]	remaining activity at 0.1 µM [11] [%]
CN1CCN(Cc2ccc(-c3cnc4[nH]cc(-c5ccc6[nH]ccc6c5)c4c3)cc2)CC1 [Compound 1, 3-(1H-Indol-5-yl)-5-(4-((4-methylpiperazin-1-yl)methyl)phenyl)-1H-pyrrolo[2,3-b]pyridine, reference compound]	81.4	46.6	75.3	102	96.6	98.1	52.8	52.3	94.9	27.5	88.8	59.2	3	11
CN1CCN(Cc2ccc(-c3cnc4[nH]cc(-c5cccc(Cl)c5)c4c3)cc2)CC1 [Compound 7ad, 3-(3-Chlorophenyl)-5-(4-((4-methylpiperazin-1-yl)methyl)phenyl)-1H-pyrrolo[2,3-b]pyridine]	97.3	77.3	88.7	99.7	78	95.2	84.4	83.9	96.9	8.09	91.8	87.8	0.68	5.8
CN1CCN(Cc2ccc(-c3cnc4[nH]cc(-c5cnn(Cc6ccccc6)c5)c4c3)cc2)CC1 [Compound 7ah, 3-(1-Benzyl-1H-pyrazol-4-yl)-5-(4-((4-methylpiperazin-1-yl)methyl)phenyl)-1H-pyrrolo[2,3-b]pyridine]	48.4	81	18.6	93.3	57.8	82.7	52	46.3	8.19	10.1	69.9	21.8	0.96	6.09
Cc1nn(C)c(C)c1-c1c[nH]c2ncc(-c3ccc(CN4CCN(C)CC4)cc3)cc12 [Compound 7ai, 5-(4-((4-Methylpiperazin-1-yl)methyl)phenyl)-3-(1,3,5-trimethyl-1H-pyrazol-4-yl)-1H-pyrrolo[2,3-b]pyridine]	95.5	26.3	77.7	99.7	85.8	84.8	93.2	87.9	87.7	53.8	99	78.5	1.35	16.5
CN1CCN(Cc2ccc(-c3cnc4[nH]cc(-c5ccccc5Cl)c4c3)cc2)CC1 [Compound 7as, 3-(2-Chlorophenyl)-5-(4-((4-methylpiperazin-1-yl)methyl)phenyl)-1H-pyrrolo[2,3-b]pyridine]	81.1	5.92	74.6	96.6	82.3	74.2	48.6	36	75.2	8.85	82.5	65.7	0.51	0.89
COc1ccccc1-c1c[nH]c2ncc(-c3ccc(CN4CCN(C)CC4)cc3)cc12 [Compound 7at, 3-(2-Methoxyphenyl)-5-(4-((4-methylpiperazin-1-yl)methyl)phenyl)-1H-pyrrolo[2,3-b]pyridine]	90.2	19	102	79.5	46.3	37.4	43.1	31.9	76.9	12.3	87.8	90.4	2.2	3.35
CN1CCN(Cc2ccc(-c3cnc4[nH]cc(-c5ccc6c(c5)OCCO6)c4c3)cc2)CC1 [Compound 7d, 3-(2,3-Dihydrobenzo[b][1,4]dioxin-6-yl)-5-(4-((4-methylpiperazin-1-yl)methyl)phenyl)-1H-pyrrolo[2,3-b]pyridine]	74.8	74.5	52.2	95.8	85.5	93.7	16.4	14.2	58	13.1	83.5	21.3	12.1	4.17
CN1CCN(Cc2ccc(-c3cnc4[nH]cc(-c5ccncc5)c4c3)cc2)CC1 [Compound 7n, 5-(4-((4-Methylpiperazin-1-yl)methyl)phenyl)-3-(pyridin-4-yl)-1H-pyrrolo[2,3-b]pyridine]	96.4	88.4	85.5	83.4	47.9	38.8	69.2	57.5	21.5	59.6	86.9	72.2	6.7	30.9
